As a reminder, the IC50 is the concentration that inhibits the measured activity by half. A higher IC50 goes with weaker potency in that assay.

KRAS G12C, sequence (P01116 other isoform, or with tags, fused parts or gaps G12C/C118A): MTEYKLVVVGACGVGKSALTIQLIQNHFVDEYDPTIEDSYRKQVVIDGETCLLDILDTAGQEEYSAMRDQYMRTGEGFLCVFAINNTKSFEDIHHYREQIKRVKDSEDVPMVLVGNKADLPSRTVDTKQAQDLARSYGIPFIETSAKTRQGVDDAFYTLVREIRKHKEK

In this assay the target is KRAS G12C (Homo sapiens (Human), UniProt P01116, C118A/G12C). The assay can be described thus: 2 h coupled exchange assay. As to conditions: Avg 2 h Coupled exchange IC50, 2 h compound pre-incubation, SOS-mediated nucleotide exchange. The assay is classed as biochemical. As for the experimental part:
The term “2 h coupled exchange assay” or “20 h coupled exchange assay” as used herein refers to the assay described in the Section entitled “BIOLOGICAL EVALUATION.”
Molecule `C=CC(=O)N1CC2(CCN(c3nc4c(c(-c5cccc6cc(C(F)(F)F)[nH]c56)c3C#N)C[C@H]3C[C@@H]4C3(C)C)C2)C1` [Example 12-27, (1R,9R)-10,10-dimethyl-4-(2-(2-propenoyl)-2,6-diazaspiro[3.4]octan-6-yl)-6-(2-(trifluoromethyl)-1H-indol-7-yl)-3-azatricyclo[7.1.1.0^2,7] undeca-2,4,6-triene-5-carbonitrile] came in with an IC50 of 476 nM.

The molecule `C=CC(=O)N1CC2(CCN(c3nc4c(c(-c5cc(F)c(O)c6ccccc56)c3C#N)COC(C)(C)C4)C2)C1` [Example 12-28, 4-(3-fluoro-4-hydroxy-1-naphthalenyl)-7,7-dimethyl-2-(2-(2-propenoyl)-2,6-diazaspiro[3.4]octan-6-yl)-7,8-dihydro-5H-pyrano[4,3-b]pyridine-3-carbonitrile] showed a 50% inhibitory concentration (IC50) of 263 nM.

Take `C=CC(=O)N1CC2(CCN(c3nc4c(c(-c5ncc(Cl)c6ccccc56)c3C#N)COC(C)(C)C4)C2)C1` [Example 12-30, 4-(4-chloro-1-isoquinolinyl)-7,7-dimethyl-2-(2-(2-propenoyl)-2,6-diazaspiro[3.4]octan-6-yl)-7,8-dihydro-5H-pyrano[4,3-b]pyridine-3-carbonitrile]: the half-maximal inhibitory concentration (IC50) amounted to 438 nM.

`C=CC(=O)N1CC2(CCN(c3nc4c(c(-c5ccc(O)c6ccccc56)c3C#N)COC(C)(C)C4)C2)C1` [Example 12-31, 4-(4-hydroxy-1-naphthalenyl)-7,7-dimethyl-2-(2-(2-propenoyl)-2,6-diazaspiro[3.4]octan-6-yl)-7,8-dihydro-5H-pyrano[4,3-b]pyridine-3-carbonitrile] had an IC50 of 189 nM.

`C=CC(=O)N1CC2(CCN(c3nc4c(c(-c5cccc6ccc(O)cc56)c3C#N)COC(C)(C)C4)C2)C1` [Example 12-32, 4-(7-hydroxy-1-naphthalenyl)-7,7-dimethyl-2-(2-(2-propenoyl)-2,6-diazaspiro[3.4]octan-6-yl)-7,8-dihydro-5H-pyrano[4,3-b]pyridine-3-carbonitrile] gave an IC50 of 515 nM.

Regarding `C=CC(=O)N1CC2(CCN(c3nc4c(c(-c5cccc6c(O)cccc56)c3C#N)COC(C)(C)C4)C2)C1` [Example 12-33, 4-(5-hydroxy-1-naphthalenyl)-7,7-dimethyl-2-(2-(2-propenoyl)-2,6-diazaspiro[3.4]octan-6-yl)-7,8-dihydro-5H-pyrano[4,3-b]pyridine-3-carbonitrile], the half-maximal inhibitory concentration (IC50) came out at 527 nM.

Take `C=CC(=O)N1CC2(CCN(c3nc4c(c(-c5cccc6cnn(C)c56)c3C#N)C[C@H]3C[C@@H]4C3(C)C)C2)C1` [Example 12-40, (1R,9R)-10,10-dimethyl-6-(1-methyl-1H-indazol-7-yl)-4-(2-(2-propenoyl)-2,6-diazaspiro[3.4]octan-6-yl)-3-azatricyclo[7.1.1.0^2,7] undeca-2,4,6-triene-5-carbonitrile]: half-maximal inhibition (IC50) required 344 nM.

`C=CC(=O)N1CC2(CCN(c3nc4c(c(-c5cccc6[nH]ccc56)c3C#N)C[C@H]3C[C@@H]4C3(C)C)C2)C1` [Example 12-42, (1R,9R)-6-(1H-indol-4-yl)-10,10-dimethyl-4-(2-(2-propenoyl)-2,6-diazaspiro[3.4]octan-6-yl)-3-azatricyclo[7.1.1.0^2,7] undeca-2,4,6-triene-5-carbonitrile] gave an IC50 of 878 nM.

For the molecule `Cc1ccc2[nH]ncc2c1-c1c(C#N)c(N2CCC3(CN(C(=O)/C=C/CF)C3)C2)nc2c1CCC(C)(C)C2` [Example 13-6, 2-(2-((2E)-4-fluoro-2-butenoyl)-2,6-diazaspiro[3.4]octan-6-yl)-7,7-dimethyl-4-(5-methyl-1H-indazol-4-yl)-5,6,7,8-tetrahydro-3-quinolinecarbonitrile], the IC50 came out at 169 nM.

Turning to `Cc1ccc2[nH]ncc2c1-c1c(C#N)c(N2CCC3(CN(C(=O)/C=C/C(F)(F)F)C3)C2)nc2c1CCC(C)(C)C2` [Example 13-7, 7,7-dimethyl-4-(5-methyl-1H-indazol-4-yl)-2-(2-((2E)-4,4,4-trifluoro-2-butenoyl)-2,6-diazaspiro[3.4]octan-6-yl)-5,6,7,8-tetrahydro-3-quinolinecarbonitrile], the half-maximal inhibitory concentration (IC50) stood at 229 nM.

Molecule `Cc1ccc2[nH]ncc2c1-c1c(C#N)c(N2CCC3(CN(C(=O)/C=C/CO)C3)C2)nc2c1CCC(C)(C)C2` [Example 13-9, 2-(2-((2E)-4-hydroxy-2-butenoyl)-2,6-diazaspiro[3.4]octan-6-yl)-7,7-dimethyl-4-(5-methyl-1H-indazol-4-yl)-5,6,7,8-tetrahydro-3-quinolinecarbonitrile] yielded a concentration for half-maximal inhibition (IC50) of 324 nM.

As for `C=CC(=O)N1CC2(CCN(c3nc4c(c(-c5c(C)ccc6[nH]ncc56)c3C#N)CN(C)CC4)C2)C1` [Example 13-22, 6-methyl-4-(5-methyl-1H-indazol-4-yl)-2-(2-(2-propenoyl)-2,6-diazaspiro[3.4]octan-6-yl)-5,6,7,8-tetrahydro-1,6-naphthyridine-3-carbonitrile], the midpoint of inhibition, the IC50, lay at 259 nM.

Molecule `C=CC(=O)N1CC2(CCN(c3nc4c(c(-c5ccccc5Cl)c3C#N)CC(C)(C)C4)C2)C1` [Example 13-23, 4-(2-chlorophenyl)-6,6-dimethyl-2-(2-(2-propenoyl)-2,6-diazaspiro[3.4]octan-6-yl)-6,7-dihydro-5H-cyclopenta[b]pyridine-3-carbonitirle] showed an IC50 of 769 nM.

As to `C=CC(=O)N1CC2(CCN(c3nc4c(c(-c5scnc5C)c3C#N)CCC(c3ccnn3C)C4)C2)C1` [Example 13-27, (7S)-7-(1-methyl-1H-pyrazol-5-yl)-4-(4-methyl-1,3-thiazol-5-yl)-2-(2-(2-propenoyl)-2,6-diazaspiro[3.4]octan-6-yl)-5,6,7,8-tetrahydro-3-quinolinecarbonitrile|(7R)-7-(1-methyl-1H-pyrazol-5-yl)-4-(4-methyl-1,3-thiazol-5-yl)-2-(2-(2-propenoyl)-2,6-diazaspiro[3.4]octan-6-yl)-5,6,7,8-tetrahydro-3-quinolinecarbonitrile], the IC50 was 231 nM.

As for `C=CC(=O)N1CC2(CCN(c3nc4c(c(-c5c(C)ccc6cnn(C)c56)c3C#N)C[C@H]3C[C@@H]4C3)[C@H]2C)C1` [Example 13-30, (1S,9R)-6-(1,6-dimethyl-1H-indazol-7-yl)-4-((5S)-5-methyl-2-(2-propenoyl)-2,6-diazaspiro[3.4]octan-6-yl)-3-azatricyclo[7.1.1.0^2,7]undeca-2,4,6-triene-5-carbonitrile], the IC50 was determined as 715 nM.

Consider `C=CC(=O)N1CC2(CCN(c3nc4c(c(-c5cc(C)cc6ccccc56)c3C#N)COC(C)(C)C4)C2)C1` [Example 13-33, 7,7-dimethyl-4-(3-methyl-1-naphthalenyl)-2-(2-(2-propenoyl)-2,6-diazaspiro[3.4]octan-6-yl)-7,8-dihydro-5H-pyrano[4,3-b]pyridine-3-carbonitrile], for which the IC50 was found to be 676 nM.

Molecule `C=CC(=O)N1CC2(CCN(c3nc4c(c(-c5c(O)ccc6ccccc56)c3C#N)COC(C)(C)C4)C2)C1` [Example 13-34, 4-(2-hydroxy-1-naphthalenyl)-7,7-dimethyl-2-(2-(2-propenoyl)-2,6-diazaspiro[3.4]octan-6-yl)-7,8-dihydro-5H-pyrano[4,3-b]pyridine-3-carbonitrile] came in with an IC50 of 946 nM.

`C=CC(=O)N1CC2(CCN(c3nc4c(c(-c5c(O)ccc6ccccc56)c3C#N)C[C@H]3C[C@@H]4C3)C2)C1` [Example 13-35, (1S,9S)-6-(2-hydroxy-1-naphthalenyl)-4-(2-(2-propenoyl)-2,6-diazaspiro[3.4]octan-6-yl)-3-azatricyclo[7.1.1.0^2,7]undeca-2,4,6-triene-5-carbonitrile] came in with a half-maximal inhibitory concentration (IC50) of 1780 nM.

Turning to `C=CC(=O)N1CC2(CCN(c3nc4c(c(-c5c(C)cccc5O)c3C#N)C[C@H]3C[C@@H]4C3)C2)C1` [Example 13-38, (1S,9S)-6-(2-hydroxy-6-methylphenyl)-4-(2-(2-propenoyl)-2,6-diazaspiro[3.4]octan-6-yl)-3-azatricyclo[7.1.1.0^2,7]undeca-2,4,6-triene-5-carbonitrile], the 50% inhibitory concentration (IC50) was determined as 1420 nM.

Molecule `C=CC(=O)N1CC2(CCN(c3nc4c(c(-c5c(C)ccc6[nH]ncc56)c3COC)CCC(C)(C)C4)C2)C1` [Example 13-46, 1-(6-(3-(methoxymethyl)-7,7-dimethyl-4-(5-methyl-1H-indazol-4-yl)-5,6,7,8-tetrahydro-2-quinolinyl)-2,6-diazaspiro[3.4]octan-2-yl)-2-propen-1-one] registered an IC50 of 685 nM.

As to `C=CC(=O)N1CC2(C1)CN(c1nc3c(c(-c4c(C)ccc5cnn(C)c45)c1C#N)COC(C)(C)C3)CC2(F)F` [Example 13-47, 2-(8,8-difluoro-2-(2-propenoyl)-2,6-diazaspiro[3.4]octan-6-yl)-4-(1,6-dimethyl-1H-indazol-7-yl)-7,7-dimethyl-7,8-dihydro-5H-pyrano[4,3-b]pyridine-3-carbonitrile], the IC50 stood at 298 nM.

Turning to `C=CC(=O)N1CC2(CCN(c3nc4c(c(-c5c(C)ccc6cnn(C)c56)c3C#N)COC(C)(C)C4)C2(C)C)C1` [Example 13-48, 4-(1,6-dimethyl-1H-indazol-7-yl)-2-(5,5-dimethyl-2-(2-propenoyl)-2,6-diazaspiro[3.4]octan-6-yl)-7,7-dimethyl-7,8-dihydro-5H-pyrano[4,3-b]pyridine-3-carbonitrile], 664 nM corresponded to half-maximal inhibition (IC50).

The molecule `C=CC(=O)N1CC2(CCN(c3nc4c(c(-c5c(C)ccc6cnn(C)c56)c3C#N)COC4(C)C)C2)C1` [Example 13-55, 4-(1,6-dimethyl-1H-indazol-7-yl)-7,7-dimethyl-2-(2-(2-propenoyl)-2,6-diazaspiro[3.4]octan-6-yl)-5,7-dihydrofuro[3,4-b]pyridine-3-carbonitrile] registered a half-inhibitory concentration (IC50) of 877 nM.

Consider `C=CC(=O)N1CC2(CCN(c3nc4c(c(-c5c(C)ccc6[nH]ncc56)c3C#N)CCC4(F)F)C2)C1` [Example 13-58, 7,7-difluoro-4-(5-methyl-1H-indazol-4-yl)-2-(2-(2-propenoyl)-2,6-diazaspiro[3.4]octan-6-yl)-6,7-dihydro-5H-cyclopenta[b]pyridine-3-carbonitrile], for which the 50% inhibitory concentration (IC50) was found to be 514 nM.
